Source: publication PMC8116058, “De novo macrocyclic peptides dissect energy coupling of a heterodimeric ABC transporter by multimode allosteric inhibition” (eLife, 2021)
Positions of bridges follow the written chain, without caps; N, C: chain ends. Non-standard residues stand in square brackets, D forms with d. Residues, ends and D or L forms follow the SMILES beside them. *: point of attachment. 5FAM = O=C1OC2(c3ccc(O)cc3Oc3cc(O)ccc32)c2ccc(C(=O)*)cc21; βAla = NCCC(=O)O

Molecular target: outward-facing TmrA^EQB trapped with Mg-ATP (Thermus thermophilus, UniProt Q72J04+Q72J05, E523Q)
Assay: Conformation-specific binding by fluorescence anisotropy, OF conformer
Settings: fluorescence polarization, IF TmrAB vs ATP-trapped OF TmrA^EQB
Text: ABC transport complexes such as TmrAB run through multiple conformational states along the ATP hydrolysis cycle to drive unidirectional substrate transport ([Hofmann et al., 2019]; [Stefan et al., 2020]). Within the substrate translocation cycle, two major conformers, inward-facing (IF) and outward-facing (OF), were identified. To investigate whether CPs favor one of these conformers, we probed the binding of CP^Fs by fluorescence polarization analysis. […] In the latter case, the interaction studies were performed immediately after the IF-to-OF switch by incubation with ATP for 5 min at 45°C. To exclude an OF-to-IF return (τ1/2 of 25 min) ([Stefan et al., 2020]), the fluorescence anisotropy was recorded only within the first minute of incubation.
Figure 5. […] Immediately after, the fluorescence anisotropy was assayed at λex/em = 485/520 nm. The difference in fluorescence polarization was normalized to free and fully bound CP^F. Data were fitted by a one-site binding model. […] Occluded nucleotides were analyzed by thin layer chromatography and autoradiography. […] (D) Stably occluded nucleotides, [α^32P]-ATP and [α^32P]-ADP, were quantified by autoradiography. […] The difference in fluorescence polarization was normalized to unbound (0%) and 100% bound CP^F. Data were fitted by a one-site binding model. Fluorescence anisotropy was recorded at λex/em = 485/520 nm. […]

| Compound | Conformational preference of binding, IF vs OF |
| --- | --- |
| CC[C@H](C)[C@@H]1NC(=O)[C@H](Cc2c[nH]c3ccccc23)NC(=O)[C@H](CC(N)=O)NC(=O)[C@H](C)NC(=O)[C@H](CO)NC(=O)[C@@H]2CCCN2C(=O)[C@H](CC(=O)O)NC(=O)[C@@H](Cc2ccc(O)cc2)NC(=O)CSC[C@@H](C(=O)NCC(=O)N[C@@H](CO)C(=O)NCCC(=O)NCCC(=O)N[C@@H](CCCNC(=N)N)C(=O)N[C@@H](CCCCNC(=O)c2ccc3c(c2)C(=O)OC32c3ccc(O)cc3Oc3cc(O)ccc32)C(N)=O)NC(=O)[C@H]([C@@H](C)O)NC(=O)[C@H](CC(C)C)NC(=O)[C@H](CC(C)C)NC(=O)[C@H](C(C)C)NC(=O)[C@H](CC(C)C)NC1=O [CP13] ({CH2CO}-[dY]DPSANWILVLLTCGS[βAla][βAla]RK(5FAM)-NH2; thioether N-14; C-terminus assumed) | preference for the OF conformer |
| CC(C)[C@@H]1NC(=O)[C@H](Cc2ccccc2)NC(=O)[C@@H]2CCCN2C(=O)[C@H](CC(N)=O)NC(=O)[C@H](Cc2c[nH]c3ccccc23)NC(=O)[C@H](C(C)C)NC(=O)[C@H](Cc2ccc(O)cc2)NC(=O)[C@H](Cc2ccccc2)NC(=O)[C@@H](Cc2ccc(O)cc2)NC(=O)CSC[C@@H](C(=O)NCC(=O)N[C@@H](CO)C(=O)NCCC(=O)NCCC(=O)N[C@@H](CCCNC(=N)N)C(=O)N[C@@H](CCCCNC(=O)c2ccc3c(c2)C(=O)OC32c3ccc(O)cc3Oc3cc(O)ccc32)C(N)=O)NC(=O)[C@H](CCCCN)NC(=O)[C@H](Cc2ccccc2)NC1=O [CP14] ({CH2CO}-[dY]FYVWNPFVFKCGS[βAla][βAla]RK(5FAM)-NH2; thioether N-12; C-terminus assumed) | preference for the OF conformer |
